Reference: patent US11648289B2, “Antibacterial method” (priority 2016, dated 2023)
Read-outs that look alike come from different tables or passages of the source. No end group written: not given here.

Key:
E. faecalis LMGT 3143 = tested on: E. faecalis LMGT 3143
Protocol: (§1) Bacterial strains, growth conditions, bacteriocins and antimicrobial assays. All the strains (see below) used in minimal inhibitory concentration (MIC) assays (Varahan et al., 2014, M. Bio. 5:e01726-01714) were grown in BHI medium (Oxoid) at 30° C. without shaking. A collection of E. faecium strains isolated from blood in patients from different European hospitals was received from Department of Medical Microbiology, University Medical Center Utrecht, the Netherlands. […] Synthesized peptides were solubilized to concentrations of 10.0-0.1 mg/ml in 0.1% (vol/vol) trifluoroacetic acid and stored at −20° C. until use. […] Bacteriocin activity was determined by microtiter plate assay as previously described (Holo et al., 1991, J. Bacteriol., 173:3879-3887). The MIC was defined as the minimal bacteriocin concentration that inhibited the growth of the indicator strain by at least 50% (50% of the turbidity of the control culture without bacteriocin) in 200 μl culture. CD Spectroscopy Circular dichroism (CD) spectra were recorded using a Jasco J-810 spectropolarimeter (Jasco International Co) calibrated with D-camphor-10-sulfonate (Icatayama Chemical). All measurements were made using a quartz cuvette (Sterna) with 0.1 cm path length. Samples were scanned five times with a scanning rate of 50 nm/min with a bandwidth of 0.5 nm and response time of 1 s over the wavelength range 190-250 nm. Spectra were recorded at different (30 and 50%) trifluoroethanol (TFE) (Aldridge) concentrations at 25° C. The approximate α-helical content of the protein was estimated from its molar ellipticity at 222 nm (Scholtz et al., 1991, Biopolymers 31:1463-1470). NMR Spectroscopy The experiments were run on a sample containing 1.0 mM EntK1, 50% D3-TFE (99.5% D) (Aldrich), Milli-Q water and 0.2 mM of 4,4-dimethyl-4-silapentane-1-sulfonic acid (DSS) (Larodan). 2D NOESY (Jeener et al., 1979, J. Magn. Reson., 71:4546-4553), 2D TOCSY (Braunschweiler and Ernst, 1983, J. Magn. Reson., 53:521-528), 2D DQCOSY, ^15N-HSQC (Davis et al., 1992, J. Magn. Reson., 98:207-216) and ^13C-HSQC (Hurd, 1991, J. Magn. Reson., 91:648-653) were recorded. The data was acquired on a 600 MHz Bruker Avance II spectrometer with four channels and a 5 mm TCI cryoprobe (Bruker Biospin). NOESY spectra with mixing times between 120 ms and 300 ms were obtained for both samples. TOCSY mixing times of 15-80 ms were used. The experiments were run at 298.15 K. Spectra were processed using the Topspin program (Bruker Biospin). 4,4-dimethyl-4-silapentane-1-sulfonic acid (DSS) was used as a chemical shift standard, and ^15N and ^13C data were referenced using frequency ratios as described in (Wishart et al., 1995, J. Biomol. NMR., 6:135-140). For visualization, assignment and integration of the spectra the computer program CARA was used (Keller, 2004, The Computer Aided Resonance Assignment Tutorial. CANTINA Verlag, Goldau, Switzerland). The spectra were assigned using standard methods. Dihedral angle restraints were obtained from the chemical shift values using the program TALOS-N(Shen and Bax, 2013, J. Biomol. NMR, 56:227-241). Nuclear Overhauser effect (NOE) distance restraints were calculated from the peak volumes in the NOESY spectra with NOESY mixing time of 200 ms. All structure calculations were made using the structure calculation program CYANA 2.1 (Guntert et al., 1997, J. Mol. Biol., 273:283-298; Herrmann et al., 2002, J. Mol. Biol., 319:209-227). The annealing macro in CYANA calculated 100 structures. The 20 structures with the lowest energy were kept and analyzed further. The root-mean-square deviation (RMSD) was calculated and the structures were visualized using MolMol (Koradi et al., 1996, J. Mol. Graph., 14:51-55, 29-32). Generation of bacteriocin resistant mutants of E. faecalis and E. faecium.

[1] = tested on: Enterococcus. faecalis LMGT 3199
Protocol: as §1

[2] = tested on: Staphylococcus. aureus LMGT 3310
Protocol: as §1

E. faecium LMGT 3193 = tested on: E. faecium LMGT 3193
Protocol: as §1

L. lactis LMGT 2084 = tested on: L. lactis LMGT 2084
Protocol: as §1

S. aureus LMGT 3272 = tested on: S. aureus LMGT 3272
Protocol: as §1

B. cereus LMGT 2731 = tested on: B. cereus LMGT 2731
Protocol: as §1

S. pneumoniae ms5 = conditions: for MIC: ms5, rseP HExxH>AAxxA, induced with ComS (2 μM)
Protocol: as §1

E. faecium LMGT 3104 = tested on: E. faecium LMGT 3104
Protocol: as §1

[3] = tested on: L. monocytogenes LMGT 2605
Protocol: as §1

L. curvatus LMGT 2355 = tested on: L. curvatus LMGT 2355
Protocol: as §1

E. faecalis LMGT 3200 = tested on: E. faecalis LMGT 3200
Protocol: as §1

S. pneumoniae ms4 = conditions: ms4, rseP Y24>A, induced with ComS (2 μM)
Protocol: as §1

E. faecium LMGT 3110 = tested on: E. faecium LMGT 3110
Protocol: as §1

[4] = tested on: Lactobacillus sakei LMGT 2334
Protocol: as §1

L. lactis LMGT 2095 = tested on: L. lactis LMGT 2095
Protocol: as §1

L. lactis IL1403 = tested on: L. lactis IL1403
Protocol: as §1

L. cremoris LMGT 2057 = tested on: L. cremoris LMGT 2057
Protocol: as §1

S. pneumoniae ms1 = conditions: ms1, rseP H18>A, induced with ComS (2 μM)
Protocol: as §1

E. faecalis LMGT 3330 = tested on: E. faecalis LMGT 3330
Protocol: as §1

E. faecium LMGT 3599 = tested on: E. faecium LMGT 3599
Protocol: as §1

Row | Sequence | MIC 50 (E. faecalis LMGT 3143) [µM] | MIC 50 [1] [µM] | MIC 50 [2] [µM] | MIC 50 (E. faecium LMGT 3193) [µM] | MIC 50 (L. lactis LMGT 2084) [µM] | MIC 50 (S. aureus LMGT 3272) [µM] | MIC 50 (B. cereus LMGT 2731) [µM] | MIC (S. pneumoniae ms5) [µM] | MIC 50 (E. faecium LMGT 3104) [µM] | MIC 50 [3] [µM] | MIC 50 (L. curvatus LMGT 2355) [µM] | MIC 50 (E. faecalis LMGT 3200) [µM] | MIC (S. pneumoniae ms4) [µM] | MIC 50 (E. faecium LMGT 3110) [µM] | MIC 50 (L. lactis LMGT 2095) [µM] | MIC 50 (L. lactis IL1403) [µM] | MIC 50 (L. cremoris LMGT 2057) [µM] | MIC (S. pneumoniae ms1) [µM] | MIC 50 (E. faecalis LMGT 3330) [µM] | MIC 50 (E. faecium LMGT 3599) [µM] | also measured
1 | MKFKFNPTGTIVKKLTQYEIAWFKNKHGYYPWEIPRC [EntK1] | >5.5 | 5.5 | >5.5 | 0.085 | >5.5 | >5.5 | >5.5 | >5.5 | 0.01 | >5.5 | 5.5 | >5.5 | 0.7 | 0.045 | >5.5 | 0.17 | >5.5 | >5.5 | >5.5 | 0.085 | MIC 50 ([4]; Lactobacillus sakei LMGT 2334): >5.5 µM
2 | MKTILRFVAGYDIASHKKKTGGYPWERGKA [LsbB, reference compound] | >7 | >7 | >7 | >7 | >7 | >7 | >7 | >7 | >7 | >7 | >7 | >7 | >7 | >7 | >7 | 0.0005 | >7 | >7 | >7 | >7 | MIC 50 ([4]; LMGT 2334): >7 µM; times more potent than EntEJ97 (L. lactis IL1403): ~70 times; times more potent than EntK1 (L. lactis IL1403): about 340 times
3 | MLAKIKAMIKKFPNPYTLAAKLTTYEINWYKQQYGRYPWERPVA [EntEJ97] | 0.145 | 0.145 | 0.59 | 0.145 | 0.295 | 1.175 | >4.7 | 0.6 | 0.145 | 1.175 | 0.145 | 0.295 | 0.018 | 0.295 | 0.145 | 0.037 | 0.145 | 0.3 | 0.145 | 0.145 | times more resistant than the WT (S. pneumoniae ms5; all three conserved RseP residues replaced with alanines): 30 times; MIC 50 ([4]; Lactobacillus sakei LMGT 2334): >4.7 µM
